Assay [1] concerns the target TEAD1(210-426) binding to YAP(50-100) (Homo sapiens, UniProt P28347). As to the kind of experiment: TR-FRET Assay for TEAD1(210-426) Binding to YAP(50-100). The following applies: His-TEAD 10 nM, YAP-Biotin peptide 50 nM. On the procedure:
Compounds were performed 3 fold serial dilution, 12 data points, added to 384 well white plate. The final DMSO concentration is 1%, duplicate for each concentration. Then His-TEAD protein was added to a final concentration of 10 nM, and allowed to preincubate for 30 minutes at room temperature. Assay buffer was added as background control.
YAP-Biotin peptide was added to a final concentration of 50 nM, mixed well, incubate 10 minutes at room temperature. The YAP(50-100) peptide sequence used here is named SEQ ID NO: 2
The Europium-labeled anti-6×His antibody and APC labeled streptavidin were diluted according to the instructions, this detection solution was mixed 1:1 with reaction solution, incubated 1 hour at room temperature.
TR-FRET measurements were made on an Envision (Perkin Elmer), using an excitation wavelength of 320 nm and emissions read at 620 nm and 665 nm. The ratio of the 665 nm to the 620 nm multiply 10000 provides a normalized TR-FRET signal that represents the extent of binding.
Half inhibition concentration IC50 value was calculated by XLfit software.
(In general: TR-FRET usually uses a lanthanide donor and a delayed reading to cut background.)

A further assay relates to MSTO-211H cells. As to the kind of experiment: Proliferation Assay (CellTiter-Glo Luminescent Cell Viability Assay). The format is cell-based. The conditions noted are these: Homo sapiens, 96 hours treatment. As to the method: Example 5: Proliferation Assay
The effect of compound on YAP driven cancer cells proliferation was assessed in MSTO-211H (ATCC, CRL-2081TM) or NCI-H2052 (ATCC, CRL-5915TM) cells using CellTiter-Glo Luminescent Cell Viability Assay (Promega, G7570).
Briefly, individual cell lines were seeded in 96-well cell culture plate at the density of 1,500 cells per well and cultured in RPMII1640 (Gibco-A10491-01)+10% FBS (Gibco-10099-141C)+1% Penicillin-Streptomycin (5,000 U/mL, Gibco-15070-063) overnight at 37° C. with 5% CO2 before adding the compounds.
Following incubation, serial dilutions of compounds dissolved in DMSO were added to each well (3-fold dilution with 9 concentration points). The final concentration of DMSO present in this assay is below 0.5% and make duplication for each compound treated well.
Following 96 hours treatment, compound mediated cell growth inhibition was measured using CellTiter-Go Luminescent Cell Viability Assay (Promega, G7570). […] CellTiter-Glo in each assay well, mix and incubate at room temperature for 10 min. Read signal using EnVision® Multilabel Plate Reader (Perkin Elmer).
For data analysis, cell proliferation inhibition was calculated using the following formula:
Inhibition %=(1−(Compound treated well CTG signal/DMSO well CTG signal))*100.
IC50 values were calculated using GraphPad Prism software using a four-parameter fit model.
A general note: Cellular ATP, detected with luciferase, serves as a proxy for viable cell number.

The IC50 is the concentration at which inhibition is half-maximal. Low readings indicate greater potency, high ones weaker potency.

Sequence of TEAD1(210-426) binding to YAP(50-100) (P28347 209-426): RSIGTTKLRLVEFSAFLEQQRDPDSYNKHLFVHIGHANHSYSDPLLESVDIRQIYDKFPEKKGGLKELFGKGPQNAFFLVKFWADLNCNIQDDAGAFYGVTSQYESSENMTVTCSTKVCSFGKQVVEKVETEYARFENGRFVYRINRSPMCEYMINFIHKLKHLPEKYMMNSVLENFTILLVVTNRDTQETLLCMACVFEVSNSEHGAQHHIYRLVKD

On to `O=c1cc(-c2nn(-c3ccc(C(F)(F)F)cc3)c3ccccc23)ccn1Cc1ccccn1` [Compound 12, 1-(pyridin-2-ylmethyl)-4-(1-(4-(trifluoromethyl)phenyl)-1H-indazol-3-yl)pyridin-2 (1H)-one], for which the IC50 is no more than 100 nM in assay [1] and 1000 to 10000 nM with MSTO-211H cells.
For the molecule `O=c1cc(-c2nn(-c3ccc(C(F)(F)F)cc3)c3ncccc23)ccn1Cc1ccnc(OCCO)n1` [Compound 126, 1-((2-(2-hydroxyethoxy)pyrimidin-4-yl)methyl)-4-(1-(4-(trifluoromethyl)phenyl)-1H-pyrazolo[3,4-b]pyridin-3-yl)pyridin-2(1H)-one], the IC50 in assay [1] was no more than 100 nM; in the assay on MSTO-211H cells it was no more than 1000 nM.
Regarding `CNc1nccc(Cn2ccc(-c3nn(-c4ccc(C(F)(F)F)cc4)c4c(F)cccc34)cc2=O)n1` [Compound 128, 4-(7-fluoro-1-(4-(trifluoromethyl)phenyl)-1H-indazol-3-yl)-1-((2-(methylamino)pyrimidin-4-yl)methyl)pyridin-2(1H)-one], the figures for the IC50 (in assay [1]; in the assay on MSTO-211H cells) were no more than 100 nM and no more than 1000 nM, respectively.
With `C[C@@H](c1ccccn1)n1ccc(-c2nn(-c3ccc(C(F)(F)F)cc3)c3ccc(C(=O)O)cc23)cc1=O` [Compound 21], the IC50 in assay [1] lay in the range of 100 to 1000 nM.
As to `CCC(c1ccccn1)n1ccc(-c2nn(-c3ccc(C(F)(F)F)cc3)c3cccnc23)cc1=O` (stereo not drawn) [Compound 7, 1-(1-(pyridin-2-yl)propyl)-4-(1-(4-(trifluoromethyl)phenyl)-1H-pyrazolo[4,3-b]pyridin-3-yl)pyridin-2(1H)-one], the IC50 in assay [1] is no more than 100 nM; in the assay on MSTO-211H cells it was 1000 to 10000 nM.
With `C[C@@H](c1ccccn1)n1ccc(-c2nn(-c3ccc(C(F)(F)F)cc3)c3cccnc23)cc1=O` [Compound 2, (S)-1-(1-(pyridin-2-yl)ethyl)-4-(1-(4-(trifluoromethyl)phenyl)-1H-pyrazolo[4,3-b]pyridin-3-yl)pyridin-2(1H)-one], the IC50 in assay [1] is no more than 100 nM; in the assay on MSTO-211H cells, no more than 1000 nM.
Turning to `Cn1nc(Cn2ccc(-c3nn(-c4ccc(C(F)(F)F)cc4)c4ccccc34)cc2=O)ccc1=O` [Compound 96, 2-methyl-6-((2-oxo-4-(1-(4-(trifluoromethyl)phenyl)-1H-indazol-3-yl)pyridin-1(2H)-yl)methyl)pyridazin-3(2H)-one], the figures for the IC50 (in assay [1]; in the assay with MSTO-211H cells) were no more than 100 nM and 1000 to 10000 nM, respectively.
On to `Cn1nccc1Cn1ccc(-c2nn(-c3ccc(C(F)(F)F)cc3)c3ccccc23)cc1=O` [Compound 37, 1-((1-methyl-1 H-pyrazol-5-yl)methyl)-4-(1-(4-(trifluoromethyl)phenyl)-1H-indazol-3-yl)pyridin-2(1H)-one], for which the IC50 in assay [1] was no more than 100 nM; with MSTO-211H cells, no more than 1000 nM.
Consider `COc1ccnc(Cn2ccc(-c3nn(-c4ccc(C(F)(F)F)cc4)c4ccccc34)cc2=O)n1` [Compound 68, 1-((4-methoxypyrimidin-2-yl)methyl)-4-(1-(4-(trifluoromethyl)phenyl)-1H-indazol-3-yl)pyridin-2(1H)-one], for which the IC50 in assay [1] is no more than 100 nM; in the assay with MSTO-211H cells it was no more than 1000 nM.
`O=c1cc(-c2nn(-c3ccc(C(F)(F)F)cc3)c3ncccc23)ccn1Cc1ccnc(NC2CC2)n1` [Compound 44, 1-((2-(cyclopropylamino)pyrimidin-4-yl)methyl)-4-(1-(4-(trifluoromethyl)phenyl)-1H-pyrazolo[3,4-b]pyridin-3-yl)pyridin-2(1H)-one]: the values for the IC50 (in assay [1]; in the assay with MSTO-211H cells) were no more than 100 nM and no more than 1000 nM, respectively.
For `CNc1nccc(Cn2ccc(-c3nn(-c4ccc(C(F)(F)F)cc4)c4cccc(F)c34)cc2=O)n1` [Compound 158, 4-(1-(4-((difluoro-13-methyl)-12-fluoranyl)phenyl)-4-fluoro-1H-indazol-3-yl)-1-((2-(methylamino)pyrimidin-4-yl)methyl)pyridin-2(1H)-one] the same measures were no more than 100 nM and no more than 1000 nM.
In the case of `C[C@@H](c1ccccn1)n1ccc(-c2nn(-c3ccc(C(F)(F)F)cc3)c3ccc(C#N)cc23)cc1=O` [Compound 25], the IC50 in assay [1] lay in the range of 100 to 1000 nM.
With `Nc1ccnc(Cn2ccc(-c3nn(-c4ccc(C(F)(F)F)cc4)c4ncccc34)cc2=O)n1` [Compound 110, 1-((4-aminopyrimidin-2-yl)methyl)-4-(1-(4-(trifluoromethyl)phenyl)-1H-pyrazolo[3,4-b]pyridin-3-yl)pyridin-2(1H)-one], the concentration for half-maximal inhibition (IC50) in assay [1] is no more than 100 nM; in the assay on MSTO-211H cells, no more than 1000 nM.
Consider `CNc1nccc(Cn2ccc(-c3nn(-c4ccc(C(F)(F)F)cc4C)c4ncccc34)cc2=O)n1` [Compound 57], for which the half-maximal inhibitory concentration (IC50) was no more than 100 nM in assay [1] and no more than 1000 nM in the assay on MSTO-211H cells.
In turn, `COC(=O)c1ccc2c(c1)c(-c1ccn([C@@H](C)c3ccccn3)c(=O)c1)nn2-c1ccc(C(F)(F)F)cc1` [Compound 22, methyl (S)-3-(2-oxo-1-(1-(pyridin-2-yl)ethyl)-1,2-dihydropyridin-4-yl)-1-(4-(trifluoromethyl)phenyl)-1H-indazole-5-carboxylate] returned an IC50 in assay [1] of 100 to 1000 nM.
`C[C@@H](c1ccccn1)n1ccc(-n2nc(-c3ccc(C(F)(F)F)cc3)c3cccnc32)cc1=O` [Compound 32, (S)-1-(1-(pyridin-2-yl)ethyl)-4-(3-(4-(trifluoromethyl)phenyl)-1H-pyrazolo[3,4-b]pyridin-1-yl)pyridin-2(1H)-one] displayed an IC50 in assay [1] of no more than 100 nM.
In turn, `CN(CCO)c1ccnc(Cn2ccc(-c3nn(-c4ccc(C(F)(F)F)cc4)c4ccccc34)cc2=O)n1` [Compound 79, 1-((4-((2-hydroxyethyl)(methyl)amino)pyrimidin-2-yl)methyl)-4-(1-(4-(trifluoromethyl)phenyl)-1H-indazol-3-yl)pyridin-2(1H)-one] displayed an IC50 in the assay on MSTO-211H cells of no more than 1000 nM.
`CNc1nccc(Cn2ccc(-c3nn(-c4ccc(C(F)F)cc4)c4ncccc34)cc2=O)n1` [Compound 144, 4-(1-(4-(difluoromethyl)phenyl)-1H-pyrazolo[3,4-b]pyridin-3-yl)-1-((2-(methylamino)pyrimidin-4-yl)methyl) pyridin-2(1H)-one] displayed an IC50 in the assay on MSTO-211H cells of no more than 1000 nM.
On to `COC(=O)c1ccc2c(-c3ccn([C@@H](C)c4ccccn4)c(=O)c3)nn(-c3ccc(C(F)(F)F)cc3)c2c1` [Compound 26, methyl (S)-3-(2-oxo-1-(1-(pyridin-2-yl)ethyl)-1,2-dihydropyridin-4-yl)-1-(4-(trifluoromethyl)phenyl)-1H-indazole-6-carboxylate], for which the IC50 in assay [1] was in the range of 100 to 1000 nM.
On the same count and under the same terms, the figure for `Cn1cc(Cn2ccc(-c3nn(-c4ccc(C(F)(F)F)cc4)c4ccccc34)cc2=O)cn1` [Compound 36, 1-((1-methyl-1H-pyrazol-4-yl)methyl)-4-(1-(4-(trifluoromethyl)phenyl)-1H-indazol-3-yl)pyridin-2(1H)-one] is 100 to 1000 nM; for `C[C@@H](c1ccccn1)n1ccc(-c2nn(-c3ccc(C(F)(F)F)cc3)c3ccc(C(N)=O)cc23)cc1=O` [Compound 23] it is 100 to 1000 nM; for `O=c1cc(-c2nn(-c3ccc(C(F)(F)F)cc3)c3ccccc23)ccn1C1CCOCC1` [Compound 27] it is greater than 1000 nM.
The same measure, in the same setting: the figure for `C[C@@H](c1ccccn1)n1ccc(-c2nc(-c3ccc(C(F)(F)F)cc3)n3ccccc23)cc1=O` [Compound 35, (S)-1-(1-(pyridin-2-yl)ethyl)-4-(3-(4-(trifluoromethyl)phenyl)imidazo[1,5-a]pyridin-1-yl)pyridin-2(1H)-one] is no more than 100 nM; for `Cn1ccc(-c2nn(-c3ccc(C(F)(F)F)cc3)c3cccnc23)cc1=O` [Compound 10, 1-methyl-4-(1-(4-(trifluoromethyl)phenyl)-1H-pyrazolo[4,3-b]pyridin-3-yl)pyridin-2(1H)-one] it is greater than 1000 nM.

Values taken from patent publication US20250154127A1, “BICYCLIC HETEROARYL COMPOUNDS AND USES THEREOF” (ETERN BIOPHARMA (SHANGHAI) CO., LTD., priority 2022, published 2025).
